Article PMC10510102, “Efficient Ligand Discovery Using Sulfur(VI) Fluoride Reactive Fragments” (ACS Chemical Biology, 2023)

Molecular target: BCL6 BTB/POZ domain (Homo sapiens, UniProt P41182, C67R/C84N/C8Q)
Experiment: Cocrystal structure with BCL6 BTB/POZ dimer
Parameters: hBCL6-Flag 3Cmut (5-129) produced in house; FLAG (C); made in house
Conditions: via a sulfonate ester
Text: Crystal structures of SFs 2f and 2s within BCL6 were generated to further investigate the binding mode of the fragments; this used a previously published protocol.[42] […] The twisted conformation of 2s could also represent a premodified state of the protein–SF complex, which may have become disrupted for 2f upon covalent modification with Tyr57 to afford the extended conformation observed.
The fluorescence intensity data from the individual replicates of each sample type were normalized and identically truncated within GraphPad Prism 5.0.4.11 These values were subsequently fitted to equation (4) corresponding to a Boltzmann sigmoid in order to obtain the melting temperature (“V50”; T m) of the protein:
Y=BOTTOM+((TOP+BOTTOM)/(1+exp((V50–X)/SLOPE))) (4)
The three obtained T m values were averaged to give a final T m value in each case. The normalized fluorescence data for the three replicates of each sample were averaged to yield a single dataset for each case, which were then plotted in GraphPad Prism 5.0.4 to give the plots shown in the manuscript.11
Table S9. Thermal melting temperatures of unmodified and covalently modified BCL6 BTB/POZ domain as determined by differential scanning fluorimetry measurements.
The arithmetic mean and standard deviation from three replicates are shown.
Hit Chemotype Protein Species Tm / °C ΔT m / °C […]

CN(C)C(=O)Nc1cccc(CNC(=O)Cc2ccc(S(=O)(=O)F)cc2)c1 [2f]
residue covalently conjugated in cocrystal structure: Tyr57
